# Measurements reported in US10858366B2 (priority 2016, dated 2020).
# pEC50, pIC50: −log10 of the molar value.
# Experiments:
# [1] = biological target: truncated Influenza A/victoria/75 PA(1-209) (Influenza A virus (strain A/Victoria/3/1975 H3N2), UniProt P31343); assay: Endonuclease Inhibition Assay (PA FP Assay); assay type: binding; conditions: fluorescence polarization, fluorescein-labeled probe
# Description: Endonuclease Inhibition Assay (PA FP Assay)
# Compounds were dissolved and serially diluted in 100% DMSO then 0.5 μl was transferred to 384-well plates. 50 nM truncated Influenza A/victoria/75 PA(1-209) was prepared in assay buffer (20 mM Tris, pH=7.5, 10 mM MgCl2, 0.01% Tween 20, 100 mM NaCl and 1 mM DTT) and 20 ul was added to each well of assay plate with compounds, centrifuged for 1 min at 1000 rpm and incubated for 30 min at room temperature. 20 μl of 20 nM fluorescein-labeled probe [5-(4-(3-carboxy-3-oxopropanoyl)-4-(4-chlorobenzyl)piperidine-1-carbonyl)-2-(6-hydroxy-3-oxo-3H-xanthen-9-yl)benzoic acid] in assay buffer was then added, centrifuged for 1 min at 1000 rpm and incubated for 60 min at room temperature.
# Fluorescence polarization was measured on Perkin Elmer Envision plate reader with excitation at 480 nm and emission at 535 nm and reported in millipolarization units (mP). IC50 values were determined relative to wells containing 125 uM of a compound known to bind to the active site of PA and uninhibited wells containing 1.25% DMSO.
# [2] = biological target: RNP_CAL (PB2, PB1, PA, NP, influenza A Luciferase reporter in 293T cells) (Influenza A virus (strain swl A/California/04/2009 H1N1), UniProt C3W5S0); assay: cell-based
Compound,pIC50 [1],pEC50 [2]
"O=c1cnn2c(c1O)-c1nccn1C[C@@H]2[C@H](c1ccc(F)cc1)c1ccc(F)cc1Br [Example 39, (S)-6-((R)-(2-bromo-4-fluorophenyl)(4-fluorophenyl)methyl)-11-hydroxy-5,6-dihydro-10H-imidazo[2′,1′:3,4]pyrazino[1,2-b]pyridazin-10-one]",8.00,7.48
"Cc1ccccc1[C@H](c1ccc(F)cc1)[C@H]1Cn2ccnc2-c2c(O)c(=O)cnn21 [Example 40, (S)-6-((S)-(4-fluorophenyl)(o-tolyl)methyl)-11-hydroxy-5,6-dihydro-10H-imidazo[2′,1′:3,4]pyrazino[1,2-b]pyridazin-10-one]",7.70,7.49
"N#Cc1cccc([C@H](c2ccc(F)cc2)[C@H]2Cn3ccnc3-c3c(O)c(=O)cnn32)c1 [Example 43, 3-((S)-(4-fluorophenyl)((S)-11-hydroxy-10-oxo-5,6-dihydro-10H-imidazo[2′,1′:3,4]pyrazino[1,2-b]pyridazin-6-yl)methyl)benzonitrile]",7.70,7.41
"N#Cc1cccc([C@H](c2cccc(F)c2)[C@H]2Cn3ccnc3-c3c(O)c(=O)cnn32)c1 [Example 46, 3-((R)-(3-fluorophenyl)((S)-11-hydroxy-10-oxo-5,6-dihydro-10H-imidazo[2′,1′:3,4]pyrazino[1,2-b]pyridazin-6-yl)methyl)benzonitrile]",7.30,7.19
"O=c1ccn2c(c1O)-c1ncc(-c3cn[nH]c3)n1C[C@@H]2C(c1ccccc1)c1ccccc1 [Example 52, (S)-6-benzhydryl-11-hydroxy-3-(1H-pyrazol-4-yl)-5,6-dihydro-10H-imidazo[1,2-a]pyrido[2,1-c]pyrazin-10-one]",8.10,5.08
"O=c1ccn2c(c1O)-c1ncc(-c3ccccc3)n1C[C@@H]2C(c1ccccc1)c1ccccc1 [Example 53, (S)-6-benzhydryl-11-hydroxy-3-phenyl-5H-imidazo [1,2-a] pyrido[2,1-c]pyrazin-10(6H)-one]",7.22,5.52
"COCc1cnc2n1C[C@H](C(c1ccccc1)c1ccccc1)n1ccc(=O)c(O)c1-2 [Example 56, (S)-6-benzhydryl-11-hydroxy-3-(methoxymethyl)-5H-imidazo [1,2-a]pyrido[2,1-c]pyrazin-10(6H)-one]",7.00,7.04
"O=c1ccn2c(c1O)-c1ncc(C(F)F)n1C[C@@H]2C(c1ccccc1)c1ccccc1 [Example 57, (S)-6-benzhydryl-3-(difluoromethyl)-11-hydroxy-5H-imidazo[1,2-a]pyrido[2,1-c]pyrazin-10(6H)-one]",7.40,6.74
"CC1(C)N(C(c2ccccc2)c2ccccc2)n2ccc(=O)c(O)c2-c2nccn21 [Example 75, 6-benzhydryl-11-hydroxy-5,5-dimethyl-5,6-dihydro-10H-imidazo[1,2-d]pyrido[2,1-f][1,2,4]triazin-10-one]",7.00,6.52
"CCC1N(C(c2ccccc2)c2ccccc2)n2ccc(=O)c(O)c2-c2nccn21 (centres unmarked) [Example 78, 6-benzhydryl-5-ethyl-11-hydroxy-5,6-dihydro-10H-imidazo[1,2-d]pyrido[2,1-f][1,2,4]triazin-10-one]",7.40,6.74
